In patent US8993483B2, “Combination of active substances with insecticidal properties” (Bayer Intellectual Property GmbH, priority 2003, dated 2015):

tested on: not given; assay: not given; details: not given

melting point	SMILES
163 to 165 °C	Cc1cc(Cl)cc(C(=O)NC(C)(C)C)c1NC(=O)c1cc(Cl)nn1-c1ncccc1Cl
147 to 149 °C	CNC(=O)c1cc(Br)cc(C)c1NC(=O)c1cc(Br)nn1-c1ncccc1Cl
196 to 197 °C	CCNC(=O)c1cc(Br)cc(Br)c1NC(=O)c1cc(Br)nn1-c1ncccc1Cl
201 to 202 °C	CCNC(=O)c1cc(Cl)cc(Cl)c1NC(=O)c1cc(C(F)(F)F)nn1-c1ncccc1Cl
246 to 247 °C	CC(C)(C)NC(=O)c1cc(Br)cc(Br)c1NC(=O)c1cc(C(F)(F)F)nn1-c1ncccc1Cl
247 to 248 °C	Cc1cc(Br)cc(C(=O)NC(C)(C)C)c1NC(=O)c1cc(C(F)(F)F)nn1-c1ncccc1Cl
205 to 207 °C	CCNC(=O)c1cc(Cl)cc(C)c1NC(=O)c1cc(OCC(F)(F)F)nn1-c1ncccc1Cl
228 to 229 °C	CN(C)C(=O)c1cc(Br)cc(Br)c1NC(=O)c1cc(C(F)(F)F)nn1-c1ncccc1Cl
199 to 200 °C	CCNC(=O)c1cc(Cl)cc(C)c1NC(=O)c1cc(Cl)nn1-c1ncccc1Cl
229 to 230 °C	CNC(=O)c1cc(I)cc(C)c1NC(=O)c1cc(Br)nn1-c1ncccc1Cl
200 to 201 °C	CC(C)NC(=O)c1cc(Cl)cc(Cl)c1NC(=O)c1cc(C(F)(F)F)nn1-c1ncccc1Cl
191 to 192 °C	Cc1cc(I)cc(C(=O)NC(C)C)c1NC(=O)c1cc(Br)nn1-c1ncccc1Cl
222 to 223 °C	CNC(=O)c1cc(Br)cc(C)c1NC(=O)c1cc(C(F)(F)F)nn1-c1ncccc1Cl
166 to 168 °C	CNC(=O)c1cc(Br)cc(Br)c1NC(=O)c1cc(Br)nn1-c1ncccc1Cl
162 to 163 °C	CNC(=O)c1cc(Br)cc(Br)c1NC(=O)c1cc(C(F)(F)F)nn1-c1ncccc1Cl
192 to 193 °C	CC(C)NC(=O)c1cc(Br)cc(Br)c1NC(=O)c1cc(C(F)(F)F)nn1-c1ncccc1Cl
225 to 226 °C	CNC(=O)c1cc(Cl)cc(C)c1NC(=O)c1cc(Cl)nn1-c1ncccc1Cl
192 to 193 °C	CCNC(=O)c1cc(Br)cc(C)c1NC(=O)c1cc(C(F)(F)F)nn1-c1ncccc1Cl
207 to 208 °C	Cc1cc(Br)cc(C(=O)N(C)C)c1NC(=O)c1cc(C(F)(F)F)nn1-c1ncccc1Cl
231 to 232 °C	CN(C)C(=O)c1cc(Cl)cc(Cl)c1NC(=O)c1cc(Cl)nn1-c1ncccc1Cl
185 to 187 °C	Cc1cc(Br)cc(C(=O)NC(C)C)c1NC(=O)c1cc(Br)nn1-c1ncccc1Cl
224 to 225 °C	Cc1cc(Br)cc(C(=O)NC(C)(C)C)c1NC(=O)c1cc(Cl)nn1-c1ncccc1Cl

melting point	SMILES
196 to 197 °C	CCNC(=O)c1cc(I)cc(C)c1NC(=O)c1cc(Cl)nn1-c1ncccc1Cl
232 to 235 °C	CC(C)NC(=O)c1cc(Cl)cc(Cl)c1NC(=O)c1cc(OCC(F)(F)F)nn1-c1ncccc1Cl
192 to 195 °C	CNC(=O)c1cc(Cl)cc(Cl)c1NC(=O)c1cc(OCC(F)(F)F)nn1-c1ncccc1Cl
242 to 243 °C	Cc1cc(I)cc(C(=O)NC(C)(C)C)c1NC(=O)c1cc(C(F)(F)F)nn1-c1ncccc1Cl
162 to 163 °C	CC(C)NC(=O)c1cc(Br)cc(Br)c1NC(=O)c1cc(Br)nn1-c1ncccc1Cl
206 to 208 °C	CCNC(=O)c1cc(Cl)cc(Cl)c1NC(=O)c1cc(Cl)nn1-c1ncccc1Cl
215 to 221 °C	Cc1cc(Br)cc(C(=O)NC(C)(C)C)c1NC(=O)c1cc(Br)nn1-c1ncccc1Cl
172 to 173 °C	CC(C)(C)NC(=O)c1cc(Cl)cc(Cl)c1NC(=O)c1cc(Cl)nn1-c1ncccc1Cl
245 to 246 °C	CNC(=O)c1cc(Cl)cc(Cl)c1NC(=O)c1cc(Br)nn1-c1ncccc1Cl
189 to 190 °C	Cc1cc(I)cc(C(=O)NC(C)C)c1NC(=O)c1cc(Cl)nn1-c1ncccc1Cl
214 to 215 °C	CCNC(=O)c1cc(Cl)cc(Cl)c1NC(=O)c1cc(Br)nn1-c1ncccc1Cl
140 to 141 °C	CNC(=O)c1cc(Br)cc(C)c1NC(=O)c1cc(Cl)nn1-c1ncccc1Cl
205 to 206 °C	CNC(=O)c1cc(Cl)cc(Cl)c1NC(=O)c1cc(Cl)nn1-c1ncccc1Cl
155 to 157 °C	CNC(=O)c1cc(Cl)cc(Cl)c1NC(=O)c1cc(C(F)(F)F)nn1-c1ncccc1Cl
163 to 164 °C	CCNC(=O)c1cc(Cl)cc(C)c1NC(=O)c1cc(C(F)(F)F)nn1-c1ncccc1Cl
188 to 189 °C	CCNC(=O)c1cc(Br)cc(Br)c1NC(=O)c1cc(C(F)(F)F)nn1-c1ncccc1Cl
223 to 225 °C	Cc1cc(Cl)cc(C(=O)NC(C)(C)C)c1NC(=O)c1cc(C(F)(F)F)nn1-c1ncccc1Cl
216 to 218 °C	CN(C)C(=O)c1cc(Cl)cc(Cl)c1NC(=O)c1cc(Br)nn1-c1ncccc1Cl
197 to 199 °C	CC(C)NC(=O)c1cc(Br)cc(Br)c1NC(=O)c1cc(Cl)nn1-c1ncccc1Cl
197 to 199 °C	CC(C)NC(=O)c1cc(Cl)cc(Cl)c1NC(=O)c1cc(Cl)nn1-c1ncccc1Cl
199 to 200 °C	CNC(=O)c1cc(I)cc(C)c1NC(=O)c1cc(C(F)(F)F)nn1-c1ncccc1Cl
170 to 172 °C	CC(C)(C)NC(=O)c1cc(Cl)cc(Cl)c1NC(=O)c1cc(C(F)(F)F)nn1-c1ncccc1Cl

melting point	SMILES
192 to 194 °C	CCNC(=O)c1cc(Br)cc(Br)c1NC(=O)c1cc(Cl)nn1-c1ncccc1Cl
199 to 200 °C	CCNC(=O)c1cc(I)cc(C)c1NC(=O)c1cc(C(F)(F)F)nn1-c1ncccc1Cl
197 to 198 °C	Cc1cc(Br)cc(C(=O)NC(C)C)c1NC(=O)c1cc(C(F)(F)F)nn1-c1ncccc1Cl
152 to 153 °C	Cc1cc(Br)cc(C(=O)NC(C)C)c1NC(=O)c1cc(Cl)nn1-c1ncccc1Cl
179 to 180 °C	CC(C)(C)NC(=O)c1cc(Cl)cc(Cl)c1NC(=O)c1cc(Br)nn1-c1ncccc1Cl
189 to 190 °C	CN(C)C(=O)c1cc(Br)cc(Br)c1NC(=O)c1cc(Br)nn1-c1ncccc1Cl
192 to 194 °C	CCNC(=O)c1cc(Br)cc(C)c1NC(=O)c1cc(Cl)nn1-c1ncccc1Cl
233 to 234 °C	CNC(=O)c1cc(I)cc(C)c1NC(=O)c1cc(Cl)nn1-c1ncccc1Cl
194 to 195 °C	CCNC(=O)c1cc(Cl)cc(C)c1NC(=O)c1cc(Br)nn1-c1ncccc1Cl
194 to 196 °C	CCNC(=O)c1cc(Br)cc(C)c1NC(=O)c1cc(Br)nn1-c1ncccc1Cl
159 to 161 °C	Cc1cc(Cl)cc(C(=O)NC(C)(C)C)c1NC(=O)c1cc(Br)nn1-c1ncccc1Cl
194 to 196 °C	CC(C)(C)NC(=O)c1cc(Br)cc(Br)c1NC(=O)c1cc(Br)nn1-c1ncccc1Cl
210 to 212 °C	CC(C)(C)NC(=O)c1cc(Br)cc(Br)c1NC(=O)c1cc(Cl)nn1-c1ncccc1Cl
188 to 190 °C	CC(C)NC(=O)c1cc(Cl)cc(Cl)c1NC(=O)c1cc(Br)nn1-c1ncccc1Cl
143 to 145 °C	CC(C)(C)NC(=O)c1cc(Br)cc(Cl)c1NC(=O)c1cc(C(F)(F)F)nn1-c1ncccc1Cl
225 to 227 °C	CN(C)C(=O)c1cc(Cl)cc(Cl)c1NC(=O)c1cc(C(F)(F)F)nn1-c1ncccc1Cl
188 to 190 °C	CNC(=O)c1cc(Br)cc(Br)c1NC(=O)c1cc(Cl)nn1-c1ncccc1Cl
153 to 155 °C	CN(C)C(=O)c1cc(Br)cc(Br)c1NC(=O)c1cc(Cl)nn1-c1ncccc1Cl
228 to 229 °C	Cc1cc(I)cc(C(=O)NC(C)(C)C)c1NC(=O)c1cc(Cl)nn1-c1ncccc1Cl
217 to 218 °C	Cc1cc(Cl)cc(C(=O)NC(C)C)c1NC(=O)c1cc(OCC(F)(F)F)nn1-c1ncccc1Cl
207 to 208 °C	CNC(=O)c1cc(Cl)cc(C)c1NC(=O)c1cc(OCC(F)(F)F)nn1-c1ncccc1Cl
188 to 189 °C	Cc1cc(I)cc(C(=O)NC(C)C)c1NC(=O)c1cc(C(F)(F)F)nn1-c1ncccc1Cl

tested on: caterpillars of the armyworm (Spodoptera frugiperda); assay: Spodoptera frugiperda test (cabbage leaf dip, kill rate); assay type: in vivo; details: single active compound, 4 ppm
Description: (§1) The expected action for a given combination of two active compounds can be calculated as follows, according to S. R. Colby, Weeds 15 (1967), 20-22:
(§2) • X is the kill rate, expressed as a percentage of the untreated control, when employing active compound A at an application rate of m g/ha or in a concentration of m ppm, • Y is the kill rate, expressed as a percentage of the untreated control, when employing active compound B at an application rate of n g/ha or in a concentration of n ppm and • E is the kill rate, expressed as a percentage of the untreated control, when employing active compounds A and B at application rates of m and n g/ha or in a concentration of m and n ppm, then
(§3) If the actual insecticidal kill rate exceeds the calculated value, the action of the combination is superadditive, i.e. a synergistic effect is present. In this case, the actually observed kill rate must exceed the value calculated using the above formula for the expected kill rate (E).
Spodoptera frugiperda Test
(§4) To produce a suitable preparation of active compound, 1 part by weight of active compound is mixed with the stated amounts of solvent and emulsifier, and the concentrate is diluted with emulsifier-containing water to the desired concentration.
Cabbage leaves (Brassica oleracea) are treated by being dipped into the preparation of active compound of the desired concentration and are populated with caterpillars of the armyworm (Spodoptera frugiperda) while the leaves are still moist.
(§5) After the desired period of time, the kill in % is determined. 100% means that all caterpillars have been killed; 0% means that none of the caterpillars have been killed. The kill rates determined are calculated using Colby's formula (see page 43).

SMILES	Kill rate in % after 6 d, found
N#C/N=C1\SCCN1Cc1ccc(Cl)nc1 [Ik, thiacloprid]	0%

tested on: caterpillars of the cotton boll worm (Heliothis armigera); assay: Heliothis armigera test (cabbage leaf dip, kill rate); assay type: in vivo; details: single active compound, 4 ppm
Description: as §1, §2, §3, §4
Cabbage leaves (Brassica oleracea) are treated by being dipped into the preparation of active compound of the desired concentration and are populated with caterpillars of the cotton boll worm (Heliothis armigera) while the leaves are still moist.
as §5

SMILES	Kill rate in % after 6 d, found
N#C/N=C1\SCCN1Cc1ccc(Cl)nc1 [Ik, thiacloprid]	25%

tested on: caterpillars of the diamond back moth (Plutella xylostella, normally sensitive strain); assay: Plutella xylostella test (normally sensitive strain; cabbage leaf dip, kill rate); assay type: in vivo; details: single active compound, 4 ppm
Description: as §1, §2, §3
Plutella xylostella Test (Normally Sensitive Strain)
as §4
Cabbage leaves (Brassica oleracea) are treated by being dipped into the preparation of active compound of the desired concentration and are populated with larvae of caterpillars of the diamond back moth (Plutella xylostella, normally sensitive strain) while the leaves are still moist.
After the desired period of time, the kill in % is determined. 100% means that all caterpillars have been killed; 0% means that none of the caterpillars have been killed. The kill rates determined are calculated using Colby's formula (see sheet 1).

SMILES	Kill rate in % after 6 d, found
N#C/N=C1\SCCN1Cc1ccc(Cl)nc1 [Ik, thiacloprid]	0%
